Source: ChEMBL document CHEMBL5214890 (Eur J Med Chem, 2021)
Activity calls are given as the source filed them. No cut-off for these calls is given here.

How the values were obtained:
[1] = test system: Mus musculus; assay: Antidiabetic activity in male […] assessed as reduction in body weight at 30 nmol/kg, sc administered twice daily for 3 weeks; format: functional; parameters: scale not given: the % may be the effect or the level left
[2] = test system: Mus musculus; assay: Antidiabetic activity in male […] assessed as reduction in fasted glucose level at 30 nmol/kg, sc administered twice daily for 3 weeks; format: functional, organism-based
[3] = test system: Mus musculus; assay: Antidiabetic activity in male […] assessed as increase in plasma insulin level at 30 nmol/kg, sc administered twice daily for 3 weeks; format: functional, organism-based
[4] = test system: Mus musculus; assay: Antidiabetic activity in male […] assessed as increase in plasma FGF21 level at 30 nmol/kg, sc administered twice daily for 3 weeks; format: functional, organism-based
[5] = test system: Mus musculus; assay: Antidiabetic activity in male […] assessed as decrease in serum LDL-C level at 30 nmol/kg, sc administered twice daily for 3 weeks; format: functional, organism-based
[6] = test system: Mus musculus; assay: Antidiabetic activity in male […] assessed as increase in serum HDL/LDL ratio at 30 nmol/kg, sc administered twice daily for 3 weeks; format: functional, organism-based
[7] = Toxicity in male […] assessed as normalization of hepatic lipid content at 30 nmol/kg, sc administered twice daily for 3 weeks; format: organism-based; settings: in vivo, 504 h
[8] = MRT in male Sprague-Dawley rat at 25 nmol/kg, sc administered as single dose and measured after 24 hrs by LC-MS/MS analysis; format: ADME, organism-based; settings: in vivo
[9] = AUC (inifinity) in male Sprague-Dawley rat at 25 nmol/kg, sc administered as single dose and measured after 24 hrs by LC-MS/MS analysis; format: ADME, organism-based; parameters: dose 25 nmol/kg, time 24 hrs, route sc; settings: in vivo
[10] = Toxicity in male […] assessed as decrease in hepatic lipid content at 40 nmol/kg, sc administered twice daily for 3 weeks; format: organism-based; settings: in vivo, 504 h

Compound	Activity [1] [%]	Activity [2]	Activity [3]	Activity [4]	Activity [5]	Activity [6]	Activity [7]	MRT [8] [h]	AUC at 24 h [9] [ng·h/mL]	Activity [10]
CCCCCCCCCCCCCCCC(=O)N[C@@H](CCC(=O)N[C@@H](CCC(=O)NCCCC[C@H](NC(=O)[C@H](CC(=O)O)NC(=O)[C@H](CO)NC(=O)[C@@H](NC(=O)[C@H](Cc1ccccc1)NC(=O)[C@@H](NC(=O)CNC(=O)[C@H](CCC(N)=O)NC(=O)[C@H](CO)NC(=O)[C@@H](N)Cc1cnc[nH]1)[C@@H](C)O)[C@@H](C)O)C(=O)N[C@@H](CO)C(=O)N[C@@H](CCC(=O)O)C(=O)N[C@@H](Cc1ccc(O)cc1)C(=O)N[C@@H](CC(C)C)C(=O)N[C@@H](CC(=O)O)C(=O)N[C@@H](CO)C(=O)N[C@@H](CCC(=O)O)C(=O)N[C@@H](CCCNC(=N)N)C(=O)N[C@@H](C)C(=O)N[C@@H](CCCNC(=N)N)C(=O)N[C@@H](CC(=O)O)C(=O)N[C@@H](Cc1ccccc1)C(=O)N[C@H](C(=O)N[C@@H](C)C(=O)N[C@@H](Cc1c[nH]c2ccccc12)C(=O)N[C@@H](CC(C)C)C(=O)N[C@@H](CCC(=O)O)C(=O)N[C@@H](C)C(=O)NCC(=O)NCC(=O)O)C(C)C)C(=O)O)C(=O)O	26.4	Active	Active	Active	Active	Active	Non-Toxic	–	–	–
CCCCCCCCCCCCCCCC(=O)N[C@@H](CCC(=O)NCCCC[C@H](NC(=O)[C@H](C)NC(=O)[C@H](C)NC(=O)[C@H](CCC(N)=O)NC(=O)CNC(=O)[C@H](CCC(=O)O)NC(=O)[C@H](CC(C)C)NC(=O)[C@H](Cc1ccc(O)cc1)NC(=O)[C@H](CO)NC(=O)[C@H](CO)NC(=O)[C@@H](NC(=O)[C@H](CC(=O)O)NC(=O)[C@H](CO)NC(=O)[C@@H](NC(=O)[C@H](Cc1ccccc1)NC(=O)[C@@H](NC(=O)CNC(=O)[C@H](CCC(=O)O)NC(=O)[C@H](C)NC(=O)[C@@H](N)Cc1cnc[nH]1)[C@@H](C)O)[C@@H](C)O)C(C)C)C(=O)N[C@@H](CCC(=O)O)C(=O)N[C@@H](Cc1ccccc1)C(=O)N[C@H](C(=O)N[C@@H](C)C(=O)N[C@@H](Cc1c[nH]c2ccccc12)C(=O)N[C@@H](CC(C)C)C(=O)N[C@H](C(=O)N[C@@H](CCCNC(=N)N)C(=O)NCC(=O)N[C@@H](CCCNC(=N)N)C(=O)NCC(=O)O)C(C)C)[C@@H](C)CC)C(=O)O	–	–	–	–	–	–	–	6.6	3410	Toxic
